The values below come from article PMC7849018 (Antimicrobial Agents and Chemotherapy, 2021).

Where only a bound is given, the exact number is not on record here.

The target of data set [1] is human mitochondrial POLRMT (Homo sapiens, UniProt O00411). The experiment in a line: Single nucleotide incorporation assay. The format is biochemical. The conditions noted are these: 500 μM nucleotide analog; relative to natural NTP at same concentration.
The next data set can be described thus: in vitro. The note with it: human, CC50, Myeloid progenitors; 11- to 14-day treatment.
A short description of data set [2]: Cellular ATP alongside the mitochondrial protein synthesis assay. The conditions noted are these: human, PC-3 cells.
In data set [3] the test system is SDH-A (nuclear DNA-encoded succinate dehydrogenase, complex II) protein level. The experiment in a line: Mitochondrial protein synthesis assay. The format is cell-based. The note with it: human, PC-3 cells.
Data set [4] relates to COX-1 (mitochondrial DNA-encoded cytochrome c oxidase, complex IV) protein level. The data set can be described thus: Mitochondrial protein synthesis assay. The format is cell-based. The conditions noted are these: human, PC-3 cells.
Data set [5] in a line: Mitochondrial respiration. It is filed as cell-based. The note with it: human, PC-3 cells, 3-day treatment.
A short description of data set [6]: Mitochondrial respiration. It is filed as cell-based. The note with it: human; for CC50 at 3 days: primary human hepatocytes (PHH).
The test system of a further data set is HepG2 cells. The data set can be described thus: Intracellular reactive oxygen species level. The format is cell-based, human. The note with it: 30-minute incubation (100 or 200 μM).

Sequence of human mitochondrial POLRMT (O00411 42-1230): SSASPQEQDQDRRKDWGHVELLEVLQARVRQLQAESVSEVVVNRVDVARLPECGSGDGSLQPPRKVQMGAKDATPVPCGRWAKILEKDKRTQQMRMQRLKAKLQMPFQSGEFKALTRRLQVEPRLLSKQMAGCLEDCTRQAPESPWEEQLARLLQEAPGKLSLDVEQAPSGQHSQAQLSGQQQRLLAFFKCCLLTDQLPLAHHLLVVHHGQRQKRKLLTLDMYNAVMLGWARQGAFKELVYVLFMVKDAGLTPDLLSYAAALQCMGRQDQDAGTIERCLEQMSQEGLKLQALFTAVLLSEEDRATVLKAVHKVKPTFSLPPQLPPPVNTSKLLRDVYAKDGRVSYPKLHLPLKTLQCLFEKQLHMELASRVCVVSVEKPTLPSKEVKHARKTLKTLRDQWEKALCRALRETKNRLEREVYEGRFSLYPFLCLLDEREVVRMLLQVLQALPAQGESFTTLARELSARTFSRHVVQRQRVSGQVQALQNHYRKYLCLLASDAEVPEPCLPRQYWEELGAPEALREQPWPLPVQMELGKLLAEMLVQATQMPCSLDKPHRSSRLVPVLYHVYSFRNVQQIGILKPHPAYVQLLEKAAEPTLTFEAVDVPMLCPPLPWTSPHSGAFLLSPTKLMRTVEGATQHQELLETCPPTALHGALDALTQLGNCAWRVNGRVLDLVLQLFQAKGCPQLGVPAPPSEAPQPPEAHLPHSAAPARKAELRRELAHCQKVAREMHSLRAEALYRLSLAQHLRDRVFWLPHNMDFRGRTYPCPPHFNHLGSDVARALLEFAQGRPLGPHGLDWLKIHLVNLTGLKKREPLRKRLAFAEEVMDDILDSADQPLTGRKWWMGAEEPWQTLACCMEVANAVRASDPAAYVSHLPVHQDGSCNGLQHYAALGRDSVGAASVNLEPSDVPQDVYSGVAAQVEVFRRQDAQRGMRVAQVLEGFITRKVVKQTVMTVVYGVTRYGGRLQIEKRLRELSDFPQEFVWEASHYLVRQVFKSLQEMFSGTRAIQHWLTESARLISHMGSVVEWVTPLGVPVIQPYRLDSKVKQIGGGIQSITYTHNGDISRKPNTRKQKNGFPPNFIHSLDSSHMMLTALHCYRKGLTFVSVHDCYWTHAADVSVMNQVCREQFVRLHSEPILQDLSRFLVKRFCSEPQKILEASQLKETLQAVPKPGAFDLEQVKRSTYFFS

`COc1nc(N)nc2c1ncn2[C@@H]1O[C@H](COP(=O)(N[C@@H](C)C(=O)OCC(C)(C)C)Oc2cccc3ccccc23)[C@@H](O)[C@@]1(C)O` (stereo partly shown) [2’CMe-GTP, 2′CMe-GTP]: in data set [1], the “Rate of incorporation (% of natural dNTP or NTP), mtRNA polymerase” value was 92% ± 33%.

As for `CC(C)C(=O)OC[C@@]1(N=[N+]=[N-])O[C@@H](n2ccc(N)nc2=O)[C@H](OC(=O)C(C)C)[C@@H]1OC(=O)C(C)C` [4’CN-CTP, 4′-CN-CTP], the “Rate of incorporation (% of natural dNTP or NTP), mtRNA polymerase” value in data set [1] is 112% ± 10%.

As for `O=c1[nH]cc(F)c(=O)[nH]1` [5-fluorouracil, reference compound], the CC50 in the data set “in vitro” came to 2.2 ± 0.6 µM.

In the case of `O=C(N[C@H](CO)[C@H](O)c1ccc([N+](=O)[O-])cc1)C(Cl)Cl` [Chloramphenicol, chloramphenicol, reference compound], the CC50 at 5 days in data set [2] was 14.1 ± 3.6 µM; in data set [3], greater than 25 µM; in data set [4], 2.6 ± 0.6 µM. The CC50 at 3 day in data set [5] (3-day CC50 Cellular ATP) was greater than 50 µM; in data set [5] (3-day CC50 Total DNA content), greater than 50 µM; in data set [5] (pH 7.4, 3-day CC50 Spare respiration), 4.8 ± 1.3 µM.

Take `[H]/N=C(/N)N/C(=N/[H])NCCc1ccccc1` [Phenformin, phenformin, reference compound]: the CC50 at 3 day in data set [6] (PHH cells (primary human hepatocytes)) is 9.7 ± 4.5 µM. The CC50 at 3 days in data set [6] was found to be 22.1 ± 1.9 µM; in data set [6] (pH 7.4) it was 1.9 ± 0.5 µM.

On to `CC1=CC(=O)c2ccccc2C1=O` [menadione, reference compound], for which the “increase in ROS levels” value in the data set with HepG2 cells is listed as greater than 3 fold.
